Eight molecules from PubChem BioAssay (NCI) can be followed below.

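Step 1: Grow cells in 96-well plates. Step 2: Expose to compound for 48 hours at 5 concentrations. Step 3: Interpolate endpoints linearly; if unreached, use highest concentration. Here, GI50 denotes the concentration required for 50% inhibition of growth. At the TGI there is no net growth.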

Among the test systems are CCRF-CEM leukemia; HCT-116 colon; K-562 leukemia; MALME-3M melanoma; NCI-H23 lung; NCI/ADR-RES ovarian; PC-3 prostate; RPMI-8226 leukemia; TK-10 renal; UACC-257 melanoma.
Holding throughout (experiment): NCI-60 cell line screen, 48 h

As for `Cc1ccc2c(-c3ccnc(Nc4cccc(C(F)(F)F)c4)n3)c(-c3ccccc3)nn2n1`, the GI50 with CCRF-CEM leukemia was 7.77 µM; with HCT-116 colon, 4.32 µM; with K-562 leukemia it was over 25 µM; with MALME-3M melanoma, over 16.4 µM; in the experiment on NCI-H23 lung, 11.8 µM; in the experiment with NCI/ADR-RES ovarian, 8.47 µM. Also, the GI50 with PC-3 prostate is over 13 µM; in the experiment with RPMI-8226 leukemia, over 14.2 µM; in the experiment on TK-10 renal, 3.57 µM; in the experiment on UACC-257 melanoma, 8.31 µM. The TGI is over 25 µM in the experiment with CCRF-CEM leukemia; over 12.2 µM in the experiment with HCT-116 colon; over 25 µM in the experiment on K-562 leukemia; over 22.8 µM in the experiment on MALME-3M melanoma; over 25 µM in the experiment with NCI-H23 lung; over 25 µM with NCI/ADR-RES ovarian. For the same molecule, the TGI was over 25 µM with PC-3 prostate, over 25 µM with RPMI-8226 leukemia, 11.4 µM in the experiment on TK-10 renal and over 16.6 µM with UACC-257 melanoma.
Turning to `O=C(CCl)N1CCN(c2ccccn2)CC1`, the TGI in the experiment on CCRF-CEM leukemia was 69.2 µM; with HCT-116 colon, over 100 µM; in the experiment with K-562 leukemia it was over 100 µM; in the experiment on MALME-3M melanoma, 31.8 µM; with NCI-H23 lung, 39.9 µM; in the experiment on NCI/ADR-RES ovarian, 57.7 µM. The TGI in the experiment with PC-3 prostate was over 100 µM; in the experiment with RPMI-8226 leukemia, over 100 µM; with TK-10 renal, 35.8 µM; with UACC-257 melanoma, 65.5 µM.
As to `CCN1C[C@@H](C)n2c(c(O)c3c(=O)n(Cc4ccc(F)c(Cl)c4)nc(C(=O)NC)c32)C1=O`, the GI50 in the experiment on CCRF-CEM leukemia was 3.57 µM; with HCT-116 colon it was 3.21 µM; with K-562 leukemia, 3.39 µM; in the experiment on MALME-3M melanoma, 2.75 µM; with NCI-H23 lung, 2.7 µM; in the experiment with NCI/ADR-RES ovarian, 1.62 µM. Also, the GI50 in the experiment with PC-3 prostate is 3.27 µM; with RPMI-8226 leukemia it was 2.59 µM; in the experiment with TK-10 renal, 2.95 µM; in the experiment with UACC-257 melanoma, 2.32 µM. The TGI in the experiment with CCRF-CEM leukemia is over 100 µM; in the experiment with HCT-116 colon, over 100 µM; with K-562 leukemia, over 100 µM; in the experiment on MALME-3M melanoma, 8.07 µM; in the experiment on NCI-H23 lung, 8.62 µM; in the experiment on NCI/ADR-RES ovarian, 7.79 µM. The TGI in the experiment on PC-3 prostate is 32 µM; in the experiment on RPMI-8226 leukemia, 7.37 µM; in the experiment on TK-10 renal, 12.6 µM; in the experiment with UACC-257 melanoma, 6.77 µM.
For the molecule `CC[C@]1(O)CC2CN(CCc3c([nH]c4ccccc34)C(C(=O)OC)(c3cc4c(cc3OC)N(C=O)[C@H]3[C@@](O)(C(=O)OC)[C@H](OC(C)=O)[C@]5(CC)[C@@H]6C[C@@H]6CN6CC[C@]43[C@@H]65)C2)C1` (stereo not given in full), the GI50 in the experiment with CCRF-CEM leukemia was under 0.00325 µM; in the experiment with HCT-116 colon, under 0.00325 µM; in the experiment with K-562 leukemia, under 0.00325 µM; in the experiment with MALME-3M melanoma, 0.104 µM; with NCI-H23 lung, under 0.00325 µM; with NCI/ADR-RES ovarian, 0.179 µM. The GI50 with PC-3 prostate, with RPMI-8226 leukemia, in the experiment on TK-10 renal and in the experiment on UACC-257 melanoma was under 0.00325 µM each time. Moreover, the TGI is 0.155 µM in the experiment on CCRF-CEM leukemia; 0.00352 µM in the experiment on HCT-116 colon; 4.84 µM with K-562 leukemia; 17.9 µM with MALME-3M melanoma; 1.23 µM with NCI/ADR-RES ovarian; over 12.3 µM with PC-3 prostate. Besides, the results for the TGI in the experiment with RPMI-8226 leukemia, in the experiment on TK-10 renal and with UACC-257 melanoma were 0.0579 µM, 17.5 µM and 4.37 µM, respectively.
As for `COC(=O)NC1=Nc2ccccc2C(=O)NN1`, the TGI in the experiment with CCRF-CEM leukemia, in the experiment on HCT-116 colon, in the experiment on K-562 leukemia, in the experiment on MALME-3M melanoma, in the experiment with NCI-H23 lung and in the experiment on NCI/ADR-RES ovarian was over 100 µM in each case. The TGI in the experiment with PC-3 prostate, in the experiment with RPMI-8226 leukemia, in the experiment on TK-10 renal and in the experiment on UACC-257 melanoma was over 100 µM throughout.
With `Cc1cc2c(C(C)C)c(O)c(O)c(/C=N/O)c2c(O)c1-c1c(C)cc2c(C(C)C)c(O)c(O)c(/C=N/O)c2c1O`, the GI50 in the experiment with CCRF-CEM leukemia was 3.6 µM; with HCT-116 colon, 2.41 µM; with K-562 leukemia, 2.07 µM; with MALME-3M melanoma, 3.91 µM; with NCI-H23 lung, 1.92 µM; with NCI/ADR-RES ovarian it was 3.4 µM. In addition, the GI50 in the experiment on PC-3 prostate was 2.8 µM; in the experiment with RPMI-8226 leukemia, 2.44 µM; in the experiment with TK-10 renal, 3.13 µM; with UACC-257 melanoma it was 2.97 µM. The TGI in the experiment with CCRF-CEM leukemia came out at 14.7 µM; with HCT-116 colon, 12 µM; with K-562 leukemia, 5.96 µM; in the experiment on MALME-3M melanoma, 20.4 µM; with NCI-H23 lung, 5.74 µM; in the experiment on NCI/ADR-RES ovarian it was 15.1 µM. Besides, the TGI in the experiment with PC-3 prostate was found to be 13.5 µM; in the experiment on RPMI-8226 leukemia, 15.4 µM; in the experiment with TK-10 renal, 13.7 µM; with UACC-257 melanoma, 8.76 µM.
With `COc1cc2c3c(n(CCCNCCCCN)c(=O)c2cc1OC)-c1cc2c(cc1C3=O)OCO2`, the TGI in the experiment on CCRF-CEM leukemia was over 40.1 µM; in the experiment with HCT-116 colon it was 15.2 µM; in the experiment on K-562 leukemia it was over 100 µM; in the experiment with MALME-3M melanoma, 7.32 µM; in the experiment on NCI-H23 lung it was 10.7 µM; with NCI/ADR-RES ovarian, over 90.8 µM. In addition, the TGI with PC-3 prostate amounted to 26 µM; in the experiment with RPMI-8226 leukemia, 13.1 µM; with TK-10 renal it was 10.1 µM; in the experiment on UACC-257 melanoma it was 54.7 µM. Further, the GI50 in the experiment with HCT-116 colon is 1.85 µM; in the experiment with K-562 leukemia it was 4.1 µM; in the experiment with MALME-3M melanoma it was 1.66 µM; in the experiment with NCI-H23 lung it was 1.63 µM; in the experiment on NCI/ADR-RES ovarian, 17.3 µM; with PC-3 prostate, 4.51 µM. Moreover, the GI50 with RPMI-8226 leukemia was 0.355 µM; in the experiment on TK-10 renal it was 0.773 µM; in the experiment with UACC-257 melanoma it was 16.8 µM.
For `Cc1cc2c3c(nc4ccccc42)C(=O)c2cccnc2-c3n1`, the GI50 is 0.171 µM in the experiment on CCRF-CEM leukemia; under 0.0416 µM in the experiment with HCT-116 colon; 0.109 µM in the experiment with K-562 leukemia; 0.426 µM with MALME-3M melanoma; 0.142 µM with NCI-H23 lung; 0.489 µM in the experiment on NCI/ADR-RES ovarian. Also, the GI50 in the experiment with PC-3 prostate was 0.304 µM; in the experiment with RPMI-8226 leukemia, 0.099 µM; in the experiment with UACC-257 melanoma it was 0.169 µM. The TGI in the experiment on CCRF-CEM leukemia was 1.4 µM; in the experiment with HCT-116 colon, 0.11 µM; with K-562 leukemia, 0.345 µM; with MALME-3M melanoma, 1.39 µM; in the experiment with NCI-H23 lung, 0.466 µM; in the experiment on PC-3 prostate, 3.04 µM. In addition, the TGI was determined as 0.46 µM with RPMI-8226 leukemia and 0.55 µM in the experiment on UACC-257 melanoma.
